Test results from ChEMBL document CHEMBL1201862, “PubChem BioAssay data set” (2004).
Activity calls are given as the source filed them.

How the values were obtained:
[1] = target: C-C chemokine receptor type 6 (Homo sapiens, UniProt P51684); test: antagonism of CCR6 beta-arrestin recruitment – cell-based, luminescent beta-arrestin readout, dose response (AID 504728); format: functional
[2] = target: Beta-galactosidase (Escherichia coli, UniProt Q8VNN2); test: detection-enzyme interference by beta-gal modulators – biochemical, E. coli enzyme, set 3, artefact control for CCR6 antagonist project, dose response (AID 504712); format: functional
[3] = target: Polyadenylate-binding protein 1 (Homo sapiens, UniProt P11940); test: blockers of PABP interaction with poly(A) – biochemical, fluorescence polarization, […] (AID 2014)
[4] = target: Eukaryotic translation initiation factor 4H (Homo sapiens, UniProt Q15056); test: eIF4H binding inhibition – biochemical, uHTS, fluorescence polarization, translation initiation inhibitor project, primary screen (AID 2012)
[5] = target: T1, SUMO-activating enzyme (Homo sapiens, UniProt Q9UBT2); test: blockers of UBC9-mediated SUMO conjugation – biochemical, AlphaScreen, SUMOylation inhibitor project, confirmation (AID 2018); format: functional
T1 sequence (Q9UBE0 whole entry): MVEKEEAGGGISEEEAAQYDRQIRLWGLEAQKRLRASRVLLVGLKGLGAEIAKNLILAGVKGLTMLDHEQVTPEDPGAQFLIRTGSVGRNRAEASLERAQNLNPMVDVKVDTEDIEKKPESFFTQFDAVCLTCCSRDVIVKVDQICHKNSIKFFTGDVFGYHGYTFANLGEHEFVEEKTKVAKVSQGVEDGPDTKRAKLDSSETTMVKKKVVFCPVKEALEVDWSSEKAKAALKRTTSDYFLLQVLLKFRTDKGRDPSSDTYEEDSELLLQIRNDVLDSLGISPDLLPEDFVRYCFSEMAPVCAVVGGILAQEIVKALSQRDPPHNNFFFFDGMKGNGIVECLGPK
T1 sequence (Q9UBT2 whole entry): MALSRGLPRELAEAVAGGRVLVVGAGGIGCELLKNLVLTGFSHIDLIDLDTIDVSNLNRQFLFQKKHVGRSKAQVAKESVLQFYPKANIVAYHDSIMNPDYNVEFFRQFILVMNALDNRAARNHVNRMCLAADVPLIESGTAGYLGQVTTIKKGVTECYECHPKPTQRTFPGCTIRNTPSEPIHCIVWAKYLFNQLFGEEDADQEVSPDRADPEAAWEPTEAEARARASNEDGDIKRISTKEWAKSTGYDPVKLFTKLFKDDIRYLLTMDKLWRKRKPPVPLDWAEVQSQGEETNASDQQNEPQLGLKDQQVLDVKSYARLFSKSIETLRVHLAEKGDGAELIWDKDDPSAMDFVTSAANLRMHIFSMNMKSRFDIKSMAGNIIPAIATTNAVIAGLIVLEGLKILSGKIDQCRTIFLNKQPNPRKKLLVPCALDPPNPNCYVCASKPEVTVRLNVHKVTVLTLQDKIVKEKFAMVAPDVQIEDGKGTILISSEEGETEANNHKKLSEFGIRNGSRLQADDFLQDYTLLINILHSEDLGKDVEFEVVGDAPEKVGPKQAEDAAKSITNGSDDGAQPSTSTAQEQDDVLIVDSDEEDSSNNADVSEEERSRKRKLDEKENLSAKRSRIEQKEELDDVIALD

[6] = target: Intestinal-type alkaline phosphatase (Mus musculus, UniProt P24822); test: PubChem AID 488785; format: functional
[7] = target: Guanyl-specific ribonuclease T1 (Aspergillus oryzae (strain ATCC 42149 / RIB 40), UniProt P00651); test: inhibition of ribonuclease T1 activity – biochemical, fluorescence polarization, 1536-well, counter-screen for TPT1 inhibitor project, dose response (AID 2167)
Chain of Guanyl-specific ribonuclease T1 (P00651 whole entry): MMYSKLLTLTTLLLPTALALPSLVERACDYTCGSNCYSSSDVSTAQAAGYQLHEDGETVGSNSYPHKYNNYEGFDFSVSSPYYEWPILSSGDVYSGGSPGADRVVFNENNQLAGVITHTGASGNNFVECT

[8] = target: Phospholipase A2 (Homo sapiens, UniProt P04054); format: functional;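 further: confirmatory dose-response counterscreen on phospholipase A2, testing hits that came from an ultra-high-throughput screen for ATG4B inhibitors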
Chain of Phospholipase A2 (P04054 whole entry): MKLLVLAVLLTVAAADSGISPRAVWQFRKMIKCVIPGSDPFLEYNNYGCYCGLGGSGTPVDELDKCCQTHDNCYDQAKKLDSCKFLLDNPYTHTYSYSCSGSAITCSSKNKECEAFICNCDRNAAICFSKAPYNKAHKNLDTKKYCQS

[9] = target: T2, Alkaline phosphatase, tissue-nonspecific isozyme (Homo sapiens, UniProt P05186); test: TNAP enzyme inhibition by screening hits, dose response, selectivity assay for mouse IAP inhibitor project, biochemical, human TNAP, uHTS hits (AID 488906); format: functional
T2 sequence (P05186 whole entry): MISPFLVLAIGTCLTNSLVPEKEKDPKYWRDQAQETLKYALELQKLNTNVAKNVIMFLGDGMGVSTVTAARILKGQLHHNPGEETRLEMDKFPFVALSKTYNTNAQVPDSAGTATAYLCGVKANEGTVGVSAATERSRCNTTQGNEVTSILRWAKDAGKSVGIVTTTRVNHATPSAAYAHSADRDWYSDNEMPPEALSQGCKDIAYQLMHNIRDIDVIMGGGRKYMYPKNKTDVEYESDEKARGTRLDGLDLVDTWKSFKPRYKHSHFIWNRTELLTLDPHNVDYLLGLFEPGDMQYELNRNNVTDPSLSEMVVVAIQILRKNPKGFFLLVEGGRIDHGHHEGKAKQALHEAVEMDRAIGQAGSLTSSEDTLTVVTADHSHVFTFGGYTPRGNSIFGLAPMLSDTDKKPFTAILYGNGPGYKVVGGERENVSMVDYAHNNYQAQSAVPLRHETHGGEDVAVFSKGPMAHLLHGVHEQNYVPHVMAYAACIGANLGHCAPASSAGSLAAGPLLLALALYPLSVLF

[10] = target: T1, SUMO-activating enzyme; test: blockers of SAE1/SAE2–UBC9 SUMO transfer – biochemical, HTRF, uHTS, primary screen (AID 2006); format: protein-complex assay
[11] = target: T3, Cysteine protease ATG4B (Homo sapiens, UniProt Q9Y4P1); format: functional;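 further: Fluorescence-based dose-response confirmation assay measuring inhibition of ATG4B activity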
T3 sequence (Q9Y4P1 whole entry): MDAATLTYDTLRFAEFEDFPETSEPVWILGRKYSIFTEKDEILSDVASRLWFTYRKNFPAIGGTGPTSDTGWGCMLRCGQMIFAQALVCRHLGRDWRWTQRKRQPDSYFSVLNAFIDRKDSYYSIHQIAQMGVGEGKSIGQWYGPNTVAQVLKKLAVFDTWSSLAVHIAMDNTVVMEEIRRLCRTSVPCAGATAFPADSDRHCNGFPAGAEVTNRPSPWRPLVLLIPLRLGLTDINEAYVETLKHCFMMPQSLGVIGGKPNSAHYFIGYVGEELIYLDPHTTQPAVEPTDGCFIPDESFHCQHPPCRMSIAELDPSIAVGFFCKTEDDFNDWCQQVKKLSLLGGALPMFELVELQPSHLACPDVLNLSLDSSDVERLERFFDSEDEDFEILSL

[12] = target: Intestinal-type alkaline phosphatase (Homo sapiens, UniProt P09923); test: activation of human intestinal alkaline phosphatase – biochemical, dose response (AID 488873); format: functional
[13] = target: Induced myeloid leukemia cell differentiation protein Mcl-1 (Homo sapiens, UniProt Q07820); format: functional
[14] = target: Likely tRNA 2'-phosphotransferase (Candida albicans (strain SC5314 / ATCC MYA-2876) (Yeast), UniProt Q5A7N4); test: inhibition of Candida TPT1 enzyme activity – biochemical, fluorescence polarization, dose response (AID 2160)
Chain of Likely tRNA 2'-phosphotransferase (Q5A7N4 whole entry): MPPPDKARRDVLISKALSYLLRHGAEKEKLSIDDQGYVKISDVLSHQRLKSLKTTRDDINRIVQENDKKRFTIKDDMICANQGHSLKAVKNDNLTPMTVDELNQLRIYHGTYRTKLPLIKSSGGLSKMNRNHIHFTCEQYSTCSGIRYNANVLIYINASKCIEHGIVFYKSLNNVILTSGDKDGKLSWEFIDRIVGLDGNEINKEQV

[15] = alpha-synuclein stem-loop luciferase translation blockers – H4 neuroglioma cells, luminescence, confirmation (AID 1988); format: functional, cell-based
[16] = Luminescence Cell-Based Dose Response HTS to Identify Inhibitors of 5'UTR Stem-Loop Driven Prion Protein mRNA Translation in H4 Neuroglioblastoma Cells. [Related pubchem assays: 1827 (Project Summary), 1813 (Primary HTS)]; format: functional
[17] = HEK-293T cell viability reduction – luminescence, B-cell screen hits, cytotoxicity control for BCR NF-kB inhibitor project, dose response (AID 489021); format: functional, cell-based;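 further: HEK-293T cells carrying an NF-kB luciferase reporter; cells exposed to compound for about 14 hours before viability readout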
[18] = luciferase reporter signal reduction – luminescence, H4-C neuroglioblastoma cells, dose response (AID 2458); format: functional, cell-based;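 further: H4 neuroglioblastoma cells stably carrying a luciferase reporter gene fusion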
[19] = alpha-synuclein stem-loop translation blockers – luminescence, H4 neuroglioblastoma cells, dose confirmation, confirmation (AID 2454); format: functional, cell-based;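 further: H4 neuroglioblastoma cells carrying an alpha-synuclein 5'UTR luciferase reporter; potency for inhibition of the luciferase signal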
[20] = cells; format: functional, cell-based
[21] = target: G2/mitotic-specific cyclin-B1 (Homo sapiens, UniProt P14635); test: Counterscreen assay for inhibitors of Wee1 degradation: dose response cell-based assay to identify inhibitors of cyclin B degradation. [Related pubchem assays: 1410, 1321 ]; format: functional
Chain of G2/mitotic-specific cyclin-B1 (P14635 whole entry): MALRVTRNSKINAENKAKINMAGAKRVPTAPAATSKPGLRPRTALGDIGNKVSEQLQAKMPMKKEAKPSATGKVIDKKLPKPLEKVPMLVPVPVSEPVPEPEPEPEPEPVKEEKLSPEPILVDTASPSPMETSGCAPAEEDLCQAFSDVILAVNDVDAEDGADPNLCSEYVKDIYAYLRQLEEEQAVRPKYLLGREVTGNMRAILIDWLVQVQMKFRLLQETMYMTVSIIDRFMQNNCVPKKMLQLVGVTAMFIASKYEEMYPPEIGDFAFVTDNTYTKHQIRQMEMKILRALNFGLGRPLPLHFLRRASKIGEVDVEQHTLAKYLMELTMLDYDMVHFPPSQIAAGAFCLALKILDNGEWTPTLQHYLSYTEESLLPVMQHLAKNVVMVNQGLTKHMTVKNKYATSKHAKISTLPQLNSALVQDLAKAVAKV

[22] = target: Wee1-like protein kinase (Homo sapiens, UniProt P30291); test: Dose Response Cell-based Assay for Inhibitors of Wee1 Degradation. [Related pubchem assays: 1410, 1321 ]; format: functional
Chain of Wee1-like protein kinase (P30291 whole entry): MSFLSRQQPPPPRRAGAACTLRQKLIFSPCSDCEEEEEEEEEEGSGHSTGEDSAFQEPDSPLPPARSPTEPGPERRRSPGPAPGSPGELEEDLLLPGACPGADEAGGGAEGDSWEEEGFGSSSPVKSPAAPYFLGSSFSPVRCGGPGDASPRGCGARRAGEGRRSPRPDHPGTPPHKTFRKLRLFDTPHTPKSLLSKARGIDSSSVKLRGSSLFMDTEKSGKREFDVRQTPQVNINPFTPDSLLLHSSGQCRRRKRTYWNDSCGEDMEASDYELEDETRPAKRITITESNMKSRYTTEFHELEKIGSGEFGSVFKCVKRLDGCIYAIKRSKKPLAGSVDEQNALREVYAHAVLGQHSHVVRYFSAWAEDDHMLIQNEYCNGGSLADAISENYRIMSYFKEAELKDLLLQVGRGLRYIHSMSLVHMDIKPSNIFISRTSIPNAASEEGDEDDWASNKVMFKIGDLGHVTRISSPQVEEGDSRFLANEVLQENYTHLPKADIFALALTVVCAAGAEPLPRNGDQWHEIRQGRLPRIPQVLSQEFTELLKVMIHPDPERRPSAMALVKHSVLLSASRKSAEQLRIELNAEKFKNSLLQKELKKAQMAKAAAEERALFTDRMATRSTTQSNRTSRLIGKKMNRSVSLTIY

[23] = target: Peroxisome proliferator-activated receptor gamma/Nuclear receptor corepressor 2 (Homo sapiens, UniProt P37231+Q9Y618); format: functional
[24] = target: Photoreceptor-specific nuclear receptor (Homo sapiens, UniProt Q9Y5X4); format: functional;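 further: potency for compounds that break the NR2E3 corepressor complex and count as activators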
Chain of Photoreceptor-specific nuclear receptor (Q9Y5X4 whole entry): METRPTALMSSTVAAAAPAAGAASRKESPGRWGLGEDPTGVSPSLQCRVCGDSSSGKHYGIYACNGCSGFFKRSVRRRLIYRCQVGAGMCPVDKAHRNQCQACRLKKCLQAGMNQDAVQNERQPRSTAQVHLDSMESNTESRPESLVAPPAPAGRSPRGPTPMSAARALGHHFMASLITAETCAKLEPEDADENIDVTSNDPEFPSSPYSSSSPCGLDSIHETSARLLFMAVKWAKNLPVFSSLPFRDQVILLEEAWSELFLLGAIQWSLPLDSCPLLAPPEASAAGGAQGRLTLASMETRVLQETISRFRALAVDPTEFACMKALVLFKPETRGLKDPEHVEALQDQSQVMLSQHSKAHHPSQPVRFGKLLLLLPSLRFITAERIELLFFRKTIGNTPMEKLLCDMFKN

[25] = target: T4, Eukaryotic translation initiation factor 2-alpha kinase 3 (Homo sapiens, UniProt Q9NZJ5); test: Counterscreen assay for PERK inhibitors: Dose response cell-based high throughput screening assay to measure inhibition of PERK at 6 hours. [Related pubchem assays: 1522, 1416 ]; format: functional
T4 sequence (Q9NZJ5 whole entry): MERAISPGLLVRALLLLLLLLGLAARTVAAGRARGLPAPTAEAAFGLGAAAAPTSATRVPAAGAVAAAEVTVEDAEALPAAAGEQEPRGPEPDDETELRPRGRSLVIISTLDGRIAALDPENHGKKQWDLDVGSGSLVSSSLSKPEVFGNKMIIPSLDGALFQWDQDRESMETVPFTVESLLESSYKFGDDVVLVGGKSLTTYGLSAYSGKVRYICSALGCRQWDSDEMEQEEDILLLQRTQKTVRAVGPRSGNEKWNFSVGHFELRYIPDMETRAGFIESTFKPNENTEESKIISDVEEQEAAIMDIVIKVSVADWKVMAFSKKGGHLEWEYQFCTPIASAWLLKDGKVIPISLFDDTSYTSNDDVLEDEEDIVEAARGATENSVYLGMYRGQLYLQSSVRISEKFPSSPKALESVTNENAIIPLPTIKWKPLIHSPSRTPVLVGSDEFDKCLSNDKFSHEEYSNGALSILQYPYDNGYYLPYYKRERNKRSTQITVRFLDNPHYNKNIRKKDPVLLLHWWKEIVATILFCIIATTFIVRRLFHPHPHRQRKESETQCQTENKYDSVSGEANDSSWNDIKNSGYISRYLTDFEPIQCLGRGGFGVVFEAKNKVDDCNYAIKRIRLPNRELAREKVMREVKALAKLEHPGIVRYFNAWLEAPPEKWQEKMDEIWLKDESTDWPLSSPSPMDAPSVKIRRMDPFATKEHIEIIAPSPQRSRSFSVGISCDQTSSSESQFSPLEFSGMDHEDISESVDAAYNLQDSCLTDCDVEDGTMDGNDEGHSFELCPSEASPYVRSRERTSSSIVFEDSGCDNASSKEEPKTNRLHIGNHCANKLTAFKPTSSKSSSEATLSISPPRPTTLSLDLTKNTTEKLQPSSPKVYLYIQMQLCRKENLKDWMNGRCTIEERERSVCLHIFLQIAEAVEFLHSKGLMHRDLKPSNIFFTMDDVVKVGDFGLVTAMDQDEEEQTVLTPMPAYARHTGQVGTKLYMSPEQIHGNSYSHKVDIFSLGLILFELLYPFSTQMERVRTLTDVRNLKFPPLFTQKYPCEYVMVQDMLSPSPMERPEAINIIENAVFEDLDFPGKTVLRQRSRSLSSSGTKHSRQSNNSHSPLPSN

[26] = target: T4, Eukaryotic translation initiation factor 2-alpha kinase 3; test: Dose response cell-based high-throughput screening assay to measure PERK inhibition. [Related pubchem assays: 1416 ]; format: functional
[27] = target: T2, Alkaline phosphatase, tissue-nonspecific isozyme
[28] = NIH-3T3 fibroblast cytotoxicity, dose response, cytotoxicity control, cell-based, fluorescence, Alamar Blue, secondary assay (AID 2327); format: functional;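 further: NIH-3T3 mouse fibroblasts cultured with fluconazole at 8 µg/mL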
[29] = Luminescence Cell-Based Dose Retest to Confirm Inhibitors of Cancer Stem Cells. [Related pubchem assays (depositor defined):AID2717, AID2721]; format: functional; conditions: Homo sapiens
[30] = fluconazole-exposed Candida albicans growth modulators – fluorescence, retest, confirmation (AID 2467); format: functional, cell-based
[31] = A cytotoxicity screen of small molecule inhibitors of the PhoP region in Salmonella typhi identified in the primary screen. [Related pubchem assays: 1850, 1864, 1985 ]; format: functional
[32] = target: Serine/threonine-protein phosphatase (Homo sapiens, UniProt Q9BPW0); test: Counterscreen for inhibitors of PP1: fluorescence-based biochemical high throughput dose response assay to identify inhibitors of Protein Phosphatase 5 (PP5). [Related pubchem assays: 2034 (Summary (PP5 inhibitors)), 1987 (PP5 inhibitors in singlate), 2235 (PP1 inhibitors in singlate)]
Chain of Serine/threonine-protein phosphatase (Q9BPW0 whole entry): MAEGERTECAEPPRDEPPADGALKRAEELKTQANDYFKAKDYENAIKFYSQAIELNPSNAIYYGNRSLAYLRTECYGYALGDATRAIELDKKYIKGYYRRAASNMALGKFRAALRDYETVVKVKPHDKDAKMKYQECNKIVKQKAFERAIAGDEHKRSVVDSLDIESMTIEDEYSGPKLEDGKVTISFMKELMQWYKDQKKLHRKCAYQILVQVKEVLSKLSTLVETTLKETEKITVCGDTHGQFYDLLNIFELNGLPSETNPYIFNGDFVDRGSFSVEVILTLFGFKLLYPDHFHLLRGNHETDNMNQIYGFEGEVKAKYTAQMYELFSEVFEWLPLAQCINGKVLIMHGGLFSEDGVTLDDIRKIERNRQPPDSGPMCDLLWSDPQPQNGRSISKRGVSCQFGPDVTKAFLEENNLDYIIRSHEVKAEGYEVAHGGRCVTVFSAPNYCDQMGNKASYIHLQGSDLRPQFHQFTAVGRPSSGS

[33] = cells; format: functional
[34] = tested on: INS1; test: INS-1E survival protection against cytokine death – cell-based, luminescence, retest, dose response (AID 449756); format: functional; conditions: Rattus norvegicus;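 further: cell death triggered by IL-1 beta plus TNF-alpha plus IFN-gamma mixture; protective hits raise ATP signal compared with cytokine alone wells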
[35] = target: Serine/threonine-protein phosphatase PP1-alpha catalytic subunit (Homo sapiens, UniProt P62136); test: inhibition of protein phosphatase 1 activity – biochemical, fluorescence, dose response (AID 2403);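 further: phosphatase turnover of OMFP into fluorescent 3-O-methylfluorescein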
[36] = Vero E6 cell cytotoxicity, dose response, cytotoxicity control for non-replicating M. tuberculosis project, secondary assay (AID 492998); format: functional, VeroE6; conditions: Vero C1008
[37] = THP-1 cell cytotoxicity, dose response, cytotoxicity control for non-replicating M. tuberculosis project (AID 489025); format: functional
[38] = target: Cytochrome P450 2D6 (Homo sapiens, UniProt P10635); test: qHTS Assay for Inhibitors and Substrates of Cytochrome P450 2D6. [Related pubchem assays: 410 ]; format: ADME; conditions: read-out: Potency
[39] = target: T5, RNA-binding protein pos-1 (Caenorhabditis elegans, UniProt G5EF15); test: disruptors of C. elegans POS-1 RNA interaction – biochemical, fluorescence polarization, dose response (AID 1964);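 further: purified POS-1 fused to maltose binding protein made in E. coli; potency of compounds blocking POS-1 binding to fluorescent RNA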
T5 sequence (G5EF15 whole entry): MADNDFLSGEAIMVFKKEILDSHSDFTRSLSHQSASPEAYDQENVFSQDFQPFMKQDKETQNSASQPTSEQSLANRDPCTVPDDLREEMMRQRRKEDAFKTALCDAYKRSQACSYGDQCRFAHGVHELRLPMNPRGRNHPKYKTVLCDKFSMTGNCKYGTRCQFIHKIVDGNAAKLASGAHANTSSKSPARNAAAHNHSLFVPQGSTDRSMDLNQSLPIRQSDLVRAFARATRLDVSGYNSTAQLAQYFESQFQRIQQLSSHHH

[40] = target: T6, Zinc finger protein mex-5 (Caenorhabditis elegans, UniProt Q9XUB2); test: potency of MEX-5 RNA-binding blockers – biochemical, C. elegans, fluorescence polarization, dose response (AID 1960)
T6 sequence (Q9XUB2 whole entry): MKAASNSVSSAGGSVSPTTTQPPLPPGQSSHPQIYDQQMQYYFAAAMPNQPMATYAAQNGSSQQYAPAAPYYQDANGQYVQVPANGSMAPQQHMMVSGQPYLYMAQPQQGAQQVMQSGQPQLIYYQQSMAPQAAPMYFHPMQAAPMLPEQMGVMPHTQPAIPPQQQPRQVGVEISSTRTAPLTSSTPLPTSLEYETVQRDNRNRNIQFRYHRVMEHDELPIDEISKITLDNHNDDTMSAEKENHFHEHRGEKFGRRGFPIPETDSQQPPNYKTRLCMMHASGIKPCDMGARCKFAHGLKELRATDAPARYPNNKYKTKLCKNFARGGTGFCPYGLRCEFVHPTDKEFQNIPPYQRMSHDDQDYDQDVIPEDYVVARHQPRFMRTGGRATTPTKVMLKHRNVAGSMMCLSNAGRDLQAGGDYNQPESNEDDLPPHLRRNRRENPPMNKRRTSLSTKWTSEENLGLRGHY

[41] = target: Cytochrome P450 2C9 (Homo sapiens, UniProt P11712); conditions: Potency
[42] = luciferase reporter signal suppression in cells – H4 neuroglioma cells, luminescence, dose response (AID 1990); format: functional, cell-based

Chain of C-C chemokine receptor type 6 (P51684 whole entry): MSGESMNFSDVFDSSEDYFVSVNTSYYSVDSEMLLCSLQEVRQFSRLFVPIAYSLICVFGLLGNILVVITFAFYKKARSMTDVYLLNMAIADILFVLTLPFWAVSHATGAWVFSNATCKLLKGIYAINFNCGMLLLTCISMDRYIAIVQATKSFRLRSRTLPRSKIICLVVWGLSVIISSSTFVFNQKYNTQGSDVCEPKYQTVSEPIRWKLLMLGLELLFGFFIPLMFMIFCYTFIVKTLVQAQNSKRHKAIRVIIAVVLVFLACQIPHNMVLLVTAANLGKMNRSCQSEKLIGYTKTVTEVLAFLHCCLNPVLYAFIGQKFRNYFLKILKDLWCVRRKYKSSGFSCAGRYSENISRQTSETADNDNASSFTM

CN(Cc1ccccc1)S(=O)(=O)c1ccc(NC(=S)NC(=O)C2CCCCC2)cc1
IC50 [1]: > 66.6 µM (inactive)
IC50 [2]: > 66.6 µM (inactive)

O=C(Nc1ccc2ncccc2c1)c1ccccc1
IC50 [3]: 14.2 µM (active)
IC50 [4]: > 100 µM (inactive)

O=C(NN1C(=O)/C(=C/C=C/c2ccco2)SC1=S)c1ccncc1
IC50 [5]: 0.53 µM (active)
IC50 [6]: 13.5 µM (active)
IC50 [7]: 12.3 µM (not active)
IC50 [8]: > 80 µM (inactive)
IC50 [9]: > 100 µM (inactive)
IC50 [10]: 6.1 µM (active)
IC50 [11]: 11.1 µM (active)
EC50 [12]: > 100 µM (inactive)
IC50 [13]: 5.08 µM (active)
IC50 [14]: 14 µM (not active)

O=C(Nc1ccc(NC(=O)c2cc3ccccc3o2)cc1)c1ccc2c(c1)OCCO2
EC50 [15]: < 0.1 µM (active)
EC50 [16]: 12.7 µM (active)
IC50 [17]: > 80 µM (inactive)
EC50 [18]: 3.02 µM (active)
EC50 [19]: 2.35 µM (active)
EC50 [20]: > 12 µM (not active)

COc1ccccc1-c1ccc(SCc2ccccc2F)nn1
EC50 [21]: > 49.7 µM (not active)
EC50 [22]: > 49.7 µM (not active)

Cc1ccc(-n2c(=S)[nH]c3c(oc4ccccc43)c2=O)cc1
IC50 [23]: 6.54 µM (active)
IC50 [24]: 4.75 µM (active)

FC(F)(F)c1cccc(Oc2ccc3c(C(F)(F)F)cc(C(F)(F)F)nc3n2)c1
EC50 [25]: > 55.7 µM (not active)
EC50 [26]: > 55.7 µM (not active)

COc1cccc(N(C(=O)c2cc[nH]n2)C2(C(=O)Nc3c(C)cccc3C)CCCCC2)c1
EC50 [27]: 52.9 µM (not active)

Cc1ccc(N/N=C/c2ccncc2)cc1
EC50 [28]: 14.4 µM (active)
AC50 [29]: 4.65 µM (active)
EC50 [30]: > 38 µM (not active)
EC50 [31]: > 50 µM (active)

COc1ccc(/C=N/Nc2cc(C)nc(-n3nc(C)cc3C)n2)cc1
IC50 [32]: > 67 µM (not active)
IC50 [33]: < 0.1 µM (active)
AC50 [34]: 2.42 µM (active)
IC50 [35]: 5.81 µM (active)
CC50 [36]: 8.36 µM (active)
CC50 [37]: 6.97 µM (active)

COc1cc2c(cc1OC)-c1c(OC)c(OC)cc3ccnc(c13)C2=O [OXOGLAUCINE]
EC50 [15]: 7 µM (active)
EC50 [16]: 9.88 µM (active)
AC50 [38]: 10 µM (inconclusive)
EC50 [39]: 68.6 µM (active)
EC50 [40]: 0.834 µM (active)
AC50 [41]: 39.8 µM (inconclusive)
EC50 [42]: > 120 µM (not active)
